Test results: publication PMC6576746, “Rational discovery of dual-indication multi-target PDE/Kinase inhibitor for precision anti-cancer therapy using structural systems pharmacology” (PLoS Computational Biology, 2019)

Assays:
Assay in all cases: biochemical
Set-up in all cases: DiscoverX KinomeScan competition binding assay across human kinases; per cent of control at 10 and 100 uM
PIK3CA(H1047Y) = PIK3CA(H1047Y) (Homo sapiens, UniProt P42336, H1047Y); conditions: competition binding, % of control; read-out: Percent Control (100 uM Levosimendan)
In short: (§1)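 KinomeScan competition binding was run across a human kinase panel at 10 μM and 100 μM levosimendan. Results are %control = (test − positive control)/(negative control − positive control) × 100.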

MAK = MAK (Homo sapiens, UniProt P20794); conditions: competition binding, % of control; read-out: Percent Control (100 uM Levosimendan)
In short: as §1

BMPR2 = BMPR2 (Homo sapiens, UniProt Q13873); conditions: competition binding, % of control; read-out: Percent Control (100 uM Levosimendan)
In short: as §1

[1] = molecular target: T1, RSK3(Kin.Dom.1-N-terminal) (Homo sapiens, UniProt Q15349); conditions: competition binding, % of control; read-out: Percent Control (100 uM Levosimendan)
T1 construct: gene RPS6KA2; Kin.Dom.1-N-terminal
In short: as §1

SNRK = SNRK (Homo sapiens, UniProt Q9NRH2); conditions: competition binding, % of control; read-out: Percent Control (100 uM Levosimendan)
Chain of SNRK (Q9NRH2 whole entry): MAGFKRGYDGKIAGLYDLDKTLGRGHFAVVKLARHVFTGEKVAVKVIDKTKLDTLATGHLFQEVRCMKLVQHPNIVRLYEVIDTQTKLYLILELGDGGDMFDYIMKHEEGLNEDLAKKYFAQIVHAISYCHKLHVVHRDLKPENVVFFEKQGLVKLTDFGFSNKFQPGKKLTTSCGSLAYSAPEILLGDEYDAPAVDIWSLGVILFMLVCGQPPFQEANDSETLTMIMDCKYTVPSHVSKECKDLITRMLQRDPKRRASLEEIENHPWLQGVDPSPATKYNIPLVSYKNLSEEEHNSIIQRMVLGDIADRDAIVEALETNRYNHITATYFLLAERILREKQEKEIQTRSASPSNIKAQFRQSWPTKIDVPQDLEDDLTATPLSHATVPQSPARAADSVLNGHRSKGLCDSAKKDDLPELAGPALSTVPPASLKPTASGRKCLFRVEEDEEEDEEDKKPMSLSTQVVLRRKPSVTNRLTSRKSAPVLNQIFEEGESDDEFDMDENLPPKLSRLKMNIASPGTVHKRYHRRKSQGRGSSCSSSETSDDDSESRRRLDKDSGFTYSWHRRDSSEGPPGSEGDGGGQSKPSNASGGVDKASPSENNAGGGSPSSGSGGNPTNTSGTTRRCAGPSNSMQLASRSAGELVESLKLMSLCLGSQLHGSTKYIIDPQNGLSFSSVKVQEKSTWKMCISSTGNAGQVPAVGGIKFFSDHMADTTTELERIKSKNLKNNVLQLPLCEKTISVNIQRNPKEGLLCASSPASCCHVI
In short: as §1

[2] = molecular target: T2, RSK4(Kin.Dom.1-N-terminal) (Homo sapiens, UniProt Q9UK32); conditions: competition binding, % of control; read-out: Percent Control (100 uM Levosimendan)
T2 construct: gene RPS6KA6; Kin.Dom.1-N-terminal
T2 sequence (Q9UK32 whole entry): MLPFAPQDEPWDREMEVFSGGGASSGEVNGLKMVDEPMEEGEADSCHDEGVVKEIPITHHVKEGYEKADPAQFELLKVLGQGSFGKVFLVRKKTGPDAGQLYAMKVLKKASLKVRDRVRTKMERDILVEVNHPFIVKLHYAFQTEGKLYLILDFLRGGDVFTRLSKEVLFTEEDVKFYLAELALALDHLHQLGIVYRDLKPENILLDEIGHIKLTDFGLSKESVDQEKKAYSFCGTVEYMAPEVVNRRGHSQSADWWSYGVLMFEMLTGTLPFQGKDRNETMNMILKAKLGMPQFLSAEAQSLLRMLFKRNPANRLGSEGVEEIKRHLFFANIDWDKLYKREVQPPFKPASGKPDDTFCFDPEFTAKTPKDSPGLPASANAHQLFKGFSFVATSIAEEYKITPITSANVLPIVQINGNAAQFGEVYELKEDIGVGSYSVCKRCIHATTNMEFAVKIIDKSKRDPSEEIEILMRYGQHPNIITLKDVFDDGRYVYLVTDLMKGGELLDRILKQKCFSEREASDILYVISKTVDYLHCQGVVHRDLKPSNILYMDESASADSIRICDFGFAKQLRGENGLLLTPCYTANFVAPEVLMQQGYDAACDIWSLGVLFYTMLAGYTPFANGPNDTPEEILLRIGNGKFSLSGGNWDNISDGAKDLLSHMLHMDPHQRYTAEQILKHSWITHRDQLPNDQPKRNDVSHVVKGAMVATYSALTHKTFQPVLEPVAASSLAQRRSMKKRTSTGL
In short: as §1

BRAF = BRAF (Homo sapiens, UniProt P15056); conditions: competition binding, % of control; read-out: Percent Control (100 uM Levosimendan)
In short: as §1

[3] = molecular target: T3, RSK1(Kin.Dom.1-N-terminal) (Homo sapiens, UniProt Q15418); conditions: competition binding, % of control; read-out: Percent Control (100 uM Levosimendan)
T3 construct: gene RPS6KA1; Kin.Dom.1-N-terminal
In short: as §1

KIT-autoinhibited = KIT-autoinhibited (Homo sapiens, UniProt P10721); conditions: competition binding, % of control
Chain of KIT-autoinhibited (P10721 whole entry): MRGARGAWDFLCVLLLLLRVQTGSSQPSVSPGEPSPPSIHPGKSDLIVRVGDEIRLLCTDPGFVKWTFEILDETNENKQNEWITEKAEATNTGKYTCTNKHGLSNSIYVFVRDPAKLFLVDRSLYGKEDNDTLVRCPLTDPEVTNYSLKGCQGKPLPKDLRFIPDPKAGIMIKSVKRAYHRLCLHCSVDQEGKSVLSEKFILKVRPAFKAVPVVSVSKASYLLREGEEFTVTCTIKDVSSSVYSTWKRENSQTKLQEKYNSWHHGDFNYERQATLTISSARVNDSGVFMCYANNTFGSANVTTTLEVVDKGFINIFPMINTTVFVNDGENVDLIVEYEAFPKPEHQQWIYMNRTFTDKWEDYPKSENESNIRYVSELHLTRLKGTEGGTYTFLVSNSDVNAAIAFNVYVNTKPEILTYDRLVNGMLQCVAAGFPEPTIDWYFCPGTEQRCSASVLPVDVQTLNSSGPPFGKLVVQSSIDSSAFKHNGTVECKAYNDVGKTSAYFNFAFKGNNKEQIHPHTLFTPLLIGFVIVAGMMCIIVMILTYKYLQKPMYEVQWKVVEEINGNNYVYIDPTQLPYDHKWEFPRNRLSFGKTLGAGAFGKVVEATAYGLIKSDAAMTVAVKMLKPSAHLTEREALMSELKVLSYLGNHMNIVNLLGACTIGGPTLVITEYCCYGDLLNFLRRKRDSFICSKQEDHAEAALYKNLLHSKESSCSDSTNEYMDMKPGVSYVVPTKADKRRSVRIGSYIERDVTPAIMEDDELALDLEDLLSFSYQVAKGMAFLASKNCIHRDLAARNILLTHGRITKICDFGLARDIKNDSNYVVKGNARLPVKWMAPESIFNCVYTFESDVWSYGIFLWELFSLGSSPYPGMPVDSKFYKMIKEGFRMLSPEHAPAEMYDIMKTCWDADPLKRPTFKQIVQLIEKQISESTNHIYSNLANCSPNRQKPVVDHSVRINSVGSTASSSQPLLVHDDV
In short: as §1

OSR1 = molecular target: T4, OSR1 (Homo sapiens, UniProt O95747); conditions: competition binding, % of control; read-out: Percent Control (100 uM Levosimendan)
T4 construct: gene OXSR1
In short: as §1

TESK1 = TESK1 (Homo sapiens, UniProt Q15569); conditions: competition binding, % of control; read-out: Percent Control (100 uM Levosimendan)
In short: as §1

DRAK2 = molecular target: T5, DRAK2 (Homo sapiens, UniProt O94768); conditions: competition binding, % of control
T5 construct: gene STK17B
T5 sequence (O94768 whole entry): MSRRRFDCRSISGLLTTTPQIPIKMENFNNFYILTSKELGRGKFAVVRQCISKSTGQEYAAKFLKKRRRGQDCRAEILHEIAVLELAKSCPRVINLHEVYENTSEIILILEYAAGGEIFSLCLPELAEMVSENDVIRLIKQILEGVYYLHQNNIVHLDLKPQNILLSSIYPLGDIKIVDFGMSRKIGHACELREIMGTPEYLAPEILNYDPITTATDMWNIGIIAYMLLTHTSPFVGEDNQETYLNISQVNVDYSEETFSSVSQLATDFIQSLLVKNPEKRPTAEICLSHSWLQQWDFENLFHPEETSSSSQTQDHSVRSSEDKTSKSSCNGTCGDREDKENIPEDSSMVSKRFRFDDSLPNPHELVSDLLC
In short: as §1

PHKG1 = PHKG1 (Homo sapiens, UniProt Q16816); conditions: competition binding, % of control; read-out: Percent Control (100 uM Levosimendan)
Chain of PHKG1 (Q16816 whole entry): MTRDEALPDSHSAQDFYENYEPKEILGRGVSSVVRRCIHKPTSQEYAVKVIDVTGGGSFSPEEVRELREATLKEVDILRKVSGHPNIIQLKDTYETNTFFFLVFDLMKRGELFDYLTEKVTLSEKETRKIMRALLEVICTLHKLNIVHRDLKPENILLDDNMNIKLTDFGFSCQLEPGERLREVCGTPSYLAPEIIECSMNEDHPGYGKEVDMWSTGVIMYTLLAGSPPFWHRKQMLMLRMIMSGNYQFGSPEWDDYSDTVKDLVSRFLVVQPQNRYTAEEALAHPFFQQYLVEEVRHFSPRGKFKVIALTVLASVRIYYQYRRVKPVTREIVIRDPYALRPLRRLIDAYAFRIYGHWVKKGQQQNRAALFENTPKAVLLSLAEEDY
In short: as §1

ERK3 = molecular target: T6, ERK3 (Homo sapiens, UniProt Q16659); conditions: competition binding, % of control; read-out: Percent Control (100 uM Levosimendan)
T6 construct: gene MAPK6
In short: as §1

FES = FES (Homo sapiens, UniProt P07332); conditions: competition binding, % of control; read-out: Percent Control (100 uM Levosimendan)
Chain of FES (P07332 whole entry): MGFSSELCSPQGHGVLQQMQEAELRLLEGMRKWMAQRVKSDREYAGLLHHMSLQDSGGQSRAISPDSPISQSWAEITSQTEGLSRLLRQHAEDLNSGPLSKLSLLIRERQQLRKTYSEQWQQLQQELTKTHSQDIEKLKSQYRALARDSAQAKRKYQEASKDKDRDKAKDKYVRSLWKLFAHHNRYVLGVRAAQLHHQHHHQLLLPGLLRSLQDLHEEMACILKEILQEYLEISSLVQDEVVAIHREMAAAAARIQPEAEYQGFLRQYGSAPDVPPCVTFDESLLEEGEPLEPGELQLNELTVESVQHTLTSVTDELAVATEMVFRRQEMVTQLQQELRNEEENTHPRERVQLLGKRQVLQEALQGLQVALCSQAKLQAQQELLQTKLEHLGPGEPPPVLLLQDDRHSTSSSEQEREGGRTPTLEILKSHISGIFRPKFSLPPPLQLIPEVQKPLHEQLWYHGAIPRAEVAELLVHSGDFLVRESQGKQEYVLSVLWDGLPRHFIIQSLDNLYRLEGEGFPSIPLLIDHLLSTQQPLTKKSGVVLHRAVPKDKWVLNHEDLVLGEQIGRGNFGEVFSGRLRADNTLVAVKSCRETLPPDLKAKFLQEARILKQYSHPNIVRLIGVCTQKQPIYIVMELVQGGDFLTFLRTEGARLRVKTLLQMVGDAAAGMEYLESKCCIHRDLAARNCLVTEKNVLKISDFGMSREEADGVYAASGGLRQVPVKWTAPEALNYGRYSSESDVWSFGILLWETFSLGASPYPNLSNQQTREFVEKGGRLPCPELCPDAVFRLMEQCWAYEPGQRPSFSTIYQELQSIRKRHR
In short: as §1

CSNK2A2 = CSNK2A2 (Homo sapiens, UniProt P19784); conditions: competition binding, % of control; read-out: Percent Control (100 uM Levosimendan)
Chain of CSNK2A2 (P19784 whole entry): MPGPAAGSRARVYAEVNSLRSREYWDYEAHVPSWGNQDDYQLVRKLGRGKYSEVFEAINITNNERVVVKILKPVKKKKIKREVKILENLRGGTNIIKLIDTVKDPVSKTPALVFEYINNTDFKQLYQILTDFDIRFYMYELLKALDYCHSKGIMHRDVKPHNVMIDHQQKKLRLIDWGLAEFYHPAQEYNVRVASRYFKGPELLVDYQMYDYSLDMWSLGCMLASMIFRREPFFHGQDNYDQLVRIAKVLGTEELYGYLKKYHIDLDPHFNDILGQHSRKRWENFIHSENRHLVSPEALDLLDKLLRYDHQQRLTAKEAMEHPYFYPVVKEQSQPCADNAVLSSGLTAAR
In short: as §1

[4] = molecular target: T7, ABL1(H396P)-phosphorylated (Homo sapiens, UniProt P00519, H396P); conditions: competition binding, % of control; read-out: Percent Control (100 uM Levosimendan)
T7 construct: phosphorylated
In short: as §1

CHEK1 = CHEK1 (Homo sapiens, UniProt O14757); conditions: competition binding, % of control; read-out: Percent Control (100 uM Levosimendan)
Chain of CHEK1 (O14757 whole entry): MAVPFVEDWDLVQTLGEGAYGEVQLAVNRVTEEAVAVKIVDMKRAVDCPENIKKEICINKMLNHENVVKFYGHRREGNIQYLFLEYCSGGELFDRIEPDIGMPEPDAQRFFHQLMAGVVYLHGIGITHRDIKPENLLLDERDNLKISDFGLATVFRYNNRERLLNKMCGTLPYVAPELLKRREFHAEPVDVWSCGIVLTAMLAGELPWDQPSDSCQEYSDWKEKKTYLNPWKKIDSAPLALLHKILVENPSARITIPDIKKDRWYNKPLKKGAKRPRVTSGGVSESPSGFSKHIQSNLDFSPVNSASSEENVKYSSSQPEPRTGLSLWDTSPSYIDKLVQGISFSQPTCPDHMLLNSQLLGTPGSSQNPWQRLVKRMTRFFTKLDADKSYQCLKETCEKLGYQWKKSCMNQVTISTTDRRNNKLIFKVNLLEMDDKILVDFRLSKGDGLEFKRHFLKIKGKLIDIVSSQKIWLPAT
In short: as §1

[5] = read-out: Percent Control (10 uM Levosimendan)
[6] = read-out: Percent Control (100 uM Levosimendan)

For `C[C@@H]1CC(=O)NN=C1c1ccc(NN=C(C#N)C#N)cc1` [levosimendan], the remaining binding at 100 µM (PIK3CA(H1047Y)) was 100%, the remaining binding at 100 µM (MAK) was 100% and the remaining binding at 100 µM (BMPR2) was 100%. It also gave a remaining binding at 100 µM [1] of 100%, a remaining binding at 100 µM (SNRK) of 100% and a remaining binding at 100 µM [2] of 100%. It also gave a remaining binding at 100 µM (BRAF) of 81%, a remaining binding at 100 µM [3] of 84% and a remaining binding at 10 µM (KIT-autoinhibited; [5]) of 76%. The remaining binding at 100 µM (KIT-autoinhibited; [6]) was 52%, the remaining binding at 100 µM (OSR1) was 100% and the remaining binding at 100 µM (TESK1) was 96%. For the same molecule, the remaining binding at 10 µM (DRAK2; [5]) was 99%, the remaining binding at 100 µM (DRAK2; [6]) was 20% and the remaining binding at 100 µM (PHKG1) was 89%. It also gave a remaining binding at 100 µM (ERK3) of 79%, a remaining binding at 100 µM (FES) of 76% and a remaining binding at 100 µM (CSNK2A2) of 73%. It also gave a remaining binding at 100 µM [4] of 68% and a remaining binding at 100 µM (CHEK1) of 85%.
